# Active and inactive are the calls of the source.
# Tests used:
# [1] = target: T1, DNA repair and recombination protein RAD54-like (Homo sapiens, UniProt Q92698); test: RAD54 Holliday junction migration blockers – biochemical, fluorescence, cherry-picked samples, dose series, confirmation (AID 651657); type: functional
# T1 sequence (Q92698 whole entry): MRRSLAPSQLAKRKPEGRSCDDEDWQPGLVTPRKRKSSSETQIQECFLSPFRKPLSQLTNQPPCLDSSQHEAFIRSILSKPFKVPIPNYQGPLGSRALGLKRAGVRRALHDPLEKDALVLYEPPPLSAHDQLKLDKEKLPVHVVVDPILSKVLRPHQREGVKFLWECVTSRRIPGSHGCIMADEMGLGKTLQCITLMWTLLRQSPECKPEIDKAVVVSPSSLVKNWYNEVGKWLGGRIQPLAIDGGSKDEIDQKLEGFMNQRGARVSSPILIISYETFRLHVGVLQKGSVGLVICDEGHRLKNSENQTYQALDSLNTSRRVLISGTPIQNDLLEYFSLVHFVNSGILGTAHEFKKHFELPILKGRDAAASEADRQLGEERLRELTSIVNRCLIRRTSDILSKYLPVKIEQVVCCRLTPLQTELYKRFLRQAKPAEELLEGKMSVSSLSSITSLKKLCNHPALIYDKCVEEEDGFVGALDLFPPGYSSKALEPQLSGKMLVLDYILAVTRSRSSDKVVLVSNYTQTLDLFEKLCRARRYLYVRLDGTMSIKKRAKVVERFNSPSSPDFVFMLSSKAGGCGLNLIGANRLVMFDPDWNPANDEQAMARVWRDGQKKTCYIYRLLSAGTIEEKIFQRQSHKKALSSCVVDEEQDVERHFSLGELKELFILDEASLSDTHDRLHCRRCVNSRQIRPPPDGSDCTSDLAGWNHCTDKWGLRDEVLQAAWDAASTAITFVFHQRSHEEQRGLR
# [2] = target: T2, Corticotropin-releasing factor receptor 2/Corticotropin-releasing factor-binding protein (Homo sapiens, UniProt P24387+Q13324); test: activators of CRF receptor 2 with binding protein – uHTS hits, confirmation (AID 602473); type: functional; conditions: read-out: EC50_Mean
# T2 sequence (Q13324 whole entry): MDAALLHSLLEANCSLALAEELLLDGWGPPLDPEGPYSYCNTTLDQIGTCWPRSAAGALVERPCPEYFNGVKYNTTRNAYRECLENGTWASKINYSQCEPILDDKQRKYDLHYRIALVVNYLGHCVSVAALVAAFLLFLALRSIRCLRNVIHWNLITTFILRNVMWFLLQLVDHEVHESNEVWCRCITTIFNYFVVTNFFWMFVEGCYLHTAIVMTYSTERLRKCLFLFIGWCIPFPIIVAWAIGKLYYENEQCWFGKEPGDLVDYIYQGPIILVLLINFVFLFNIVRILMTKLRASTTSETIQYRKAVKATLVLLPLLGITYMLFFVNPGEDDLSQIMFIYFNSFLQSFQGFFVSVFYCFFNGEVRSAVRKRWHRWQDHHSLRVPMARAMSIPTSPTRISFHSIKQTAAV
# T2 sequence (P24387 whole entry): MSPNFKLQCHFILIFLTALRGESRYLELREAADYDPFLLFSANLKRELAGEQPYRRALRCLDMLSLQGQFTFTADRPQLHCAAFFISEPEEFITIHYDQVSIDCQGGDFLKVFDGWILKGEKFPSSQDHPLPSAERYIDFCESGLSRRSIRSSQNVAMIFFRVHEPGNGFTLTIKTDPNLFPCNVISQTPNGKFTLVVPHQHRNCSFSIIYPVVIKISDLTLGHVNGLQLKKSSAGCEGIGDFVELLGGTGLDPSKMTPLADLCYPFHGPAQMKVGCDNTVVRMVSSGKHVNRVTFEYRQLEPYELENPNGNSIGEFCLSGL
# [3] = target: T3, Ubiquitin-conjugating enzyme E2 N (Homo sapiens, UniProt P61088); type: functional;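 note: Dose-response confirmation in a TR-FRET assay detecting UBC13-driven polyubiquitin chain formation, inhibition measured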
# T3 sequence (P61088 whole entry): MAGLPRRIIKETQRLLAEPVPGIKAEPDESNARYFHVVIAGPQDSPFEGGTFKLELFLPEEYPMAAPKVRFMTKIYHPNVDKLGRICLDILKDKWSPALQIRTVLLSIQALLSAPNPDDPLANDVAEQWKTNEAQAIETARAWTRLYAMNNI
# [4] = target: T4, Endoribonuclease toxin MazF (Escherichia coli K-12, UniProt P0AE70); test: activation of MazEF endoribonuclease cleavage – biochemical, fluorescence, single-stranded RNA substrate, uHTS hits, dose response (AID 588481); type: functional
# T4 sequence (P0AE70 whole entry): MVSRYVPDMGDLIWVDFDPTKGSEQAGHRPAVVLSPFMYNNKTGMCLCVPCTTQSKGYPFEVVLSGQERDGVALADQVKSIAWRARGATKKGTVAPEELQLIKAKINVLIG
# [5] = target: T4, Endoribonuclease toxin MazF; test: substrate-only fluorescence increase artefacts – biochemical, single-stranded RNase substrate, counter-screen for MazEF activator project, dose response (AID 588502); type: functional
# [6] = target: DNA dC->dU-editing enzyme APOBEC-3G (Homo sapiens, UniProt Q9HC16); test: Dose Response confirmation of small molecule APOBEC3G DNA Deaminase Inhibitors via a fluorescence-based single-stranded DNA deaminase assay. [Related pubchem assays (depositor defined):AID493012, AID493028]; type: functional
# [7] = Luminescence Cell-Based Dose Response HTS to Identify Activators of Luciferase Translation or Activity in H4 […] Cells. [Related pubchem assays: 1829 (Project Summary), 1814 (Primary HTS)]; type: functional
# [8] = test system: H4; test: Luminescence Cell-Based Dose Response HTS to Identify Activators of 5'UTR Stem-Loop Driven Prion Protein mRNA Translation in H4 Neuroglioblastoma Cells. [Related pubchem assays: 1829 (Project Summary), 1814 (Primary HTS)]; type: functional; conditions: Homo sapiens
# [9] = Luminescence Cell-Based Dose Confirmation HTS to Identify Activators of 5'UTR Stem-Loop Driven Alpha-Synuclein mRNA Translation in H4 Neuroglioblastoma Cells. [Related pubchem assays: 1829 (Project Summary), 1814 (Primary HTS)]; type: functional
# [10] = cells; type: functional, cell-based
# [11] = cells; type: functional, cell-based; remark: listed apart in the source
# [12] = HIV-1 AD8 envelope cell-cell fusion blockers – cherry-pick, dose response (AID 652062); type: functional, cell-based;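 note: luciferase signal from cell-cell fusion driven by HIV-1 clade B AD8 Env; potency is for inhibitors of fusion seen as a drop in luminescence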
# [13] = blockers of HIV-1 envelope-mediated cell-cell fusion – cherry-pick, dose response (AID 652057); type: functional, cell-based
# [14] = test system: H9c2; test: cells; type: functional, cell-based; conditions: Rattus norvegicus, H9c2, Myocardium;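 note: confirmatory concentration-response retest of ultra-high-throughput screening hits for modulation of myocardial damage; cell death induced by hydrogen peroxide oxidative stress; compound pretreatment for 60 min then peroxide exposure for 2 h; potency is for protecting the cells against peroxide damage rather than for killing them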
# [15] = blockers of HIV-1 ZM109 envelope-driven cell-cell fusion – HeLa effector, CEM target cells, luciferase, cherry-pick, dose response (AID 652058); type: functional, cell-based;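 note: luciferase signal from HIV-1 Env mediated cell-cell fusion of effector and target cells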
# [16] = off-target signal loss in HeLa-CEM21 co-culture – HeLa F-luc CTL cells, cherry-picked, counter-screen for HIV-1 Env fusion inhibitor project, dose response (AID 652040); type: functional, cell-based;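 note: potency for signal decrease marking cytotoxic or nonspecific inhibition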
# [17] = THP-1 cell cytotoxicity, dose response, cytotoxicity control for non-replicating M. tuberculosis project (AID 489025); type: functional
# [18] = cells; type: functional
# [19] = target: T5, Leucine aminopeptidase (Plasmodium falciparum 3D7, UniProt Q8IL11); test: P. falciparum M17LAP inhibitors, primary screen, biochemical, fluorogenic H-Leu-NHMec substrate, 1536-well (AID 1619); type: functional
# T5 sequence (Q8IL11 whole entry): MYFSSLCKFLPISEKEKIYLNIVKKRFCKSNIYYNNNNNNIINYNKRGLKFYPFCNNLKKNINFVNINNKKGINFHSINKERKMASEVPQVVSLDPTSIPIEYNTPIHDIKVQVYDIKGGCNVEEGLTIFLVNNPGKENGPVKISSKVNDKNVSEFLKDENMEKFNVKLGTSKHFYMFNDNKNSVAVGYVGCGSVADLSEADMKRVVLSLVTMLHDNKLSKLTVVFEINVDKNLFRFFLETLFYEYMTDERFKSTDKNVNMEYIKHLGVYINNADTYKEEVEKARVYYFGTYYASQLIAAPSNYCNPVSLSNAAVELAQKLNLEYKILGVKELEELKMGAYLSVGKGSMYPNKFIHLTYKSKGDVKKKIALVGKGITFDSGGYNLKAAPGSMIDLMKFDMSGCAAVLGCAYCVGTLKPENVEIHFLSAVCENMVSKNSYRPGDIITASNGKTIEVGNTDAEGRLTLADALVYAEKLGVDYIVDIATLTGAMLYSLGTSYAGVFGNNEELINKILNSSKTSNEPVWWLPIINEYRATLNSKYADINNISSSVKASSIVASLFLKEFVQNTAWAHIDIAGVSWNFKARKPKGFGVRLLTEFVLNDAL
# [20] = target: Heat shock protein HSP 90-alpha (Homo sapiens, UniProt P07900); type: functional, organism-based
# [21] = Trypanosoma cruzi growth suppression in host cells – NIH3T3 host cells, beta-gal luminescence, confirmation (AID 2044); type: functional, cell-based;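 note: intracellular parasites grown in NIH/3T3 mouse fibroblasts as host cells; luminescent beta-galactosidase reporter signal from transgenic T. cruzi replicating inside host cells; inhibitors lower the luminescence signal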
# [22] = NIH3T3 cell viability loss – ATP luminescence, mouse fibroblasts, counter-screen, dose response (AID 2010); type: functional, cell-based;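 note: cells exposed to compound for about 90 hours before reading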
# [23] = target: T6, DNA repair protein RAD52 homolog (Homo sapiens, UniProt P43351); type: functional, biochemical
# T6 sequence (P43351 whole entry): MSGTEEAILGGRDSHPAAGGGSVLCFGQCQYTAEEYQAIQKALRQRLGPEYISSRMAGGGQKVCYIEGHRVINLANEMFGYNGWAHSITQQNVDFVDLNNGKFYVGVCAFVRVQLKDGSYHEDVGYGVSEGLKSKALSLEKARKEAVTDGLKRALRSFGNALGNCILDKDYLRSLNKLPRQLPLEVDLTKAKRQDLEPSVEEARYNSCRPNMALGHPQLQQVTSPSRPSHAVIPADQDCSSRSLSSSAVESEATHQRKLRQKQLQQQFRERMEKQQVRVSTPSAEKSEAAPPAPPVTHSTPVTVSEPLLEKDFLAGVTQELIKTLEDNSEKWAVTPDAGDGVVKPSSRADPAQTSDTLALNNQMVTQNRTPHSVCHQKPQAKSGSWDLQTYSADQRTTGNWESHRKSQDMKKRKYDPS
# DNA dC->dU-editing enzyme APOBEC-3G, sequence (Q9HC16 whole entry): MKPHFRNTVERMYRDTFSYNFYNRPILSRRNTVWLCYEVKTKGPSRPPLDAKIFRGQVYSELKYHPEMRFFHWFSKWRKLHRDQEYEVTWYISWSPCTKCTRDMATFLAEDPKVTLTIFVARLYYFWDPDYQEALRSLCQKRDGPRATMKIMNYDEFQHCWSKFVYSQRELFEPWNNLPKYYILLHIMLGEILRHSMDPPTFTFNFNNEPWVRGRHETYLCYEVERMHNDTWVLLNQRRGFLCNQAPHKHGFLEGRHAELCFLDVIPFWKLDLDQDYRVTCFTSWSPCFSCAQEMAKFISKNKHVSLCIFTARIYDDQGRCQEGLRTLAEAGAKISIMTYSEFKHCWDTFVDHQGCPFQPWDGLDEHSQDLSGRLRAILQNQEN
smiles,measurement,setting,value
COC(=O)c1c(NC(=O)c2ccco2)sc2c1CCN(C(C)C)C2,AC50,[1],25.4 µM (active)
same,EC50,[2],> 53 µM (inactive)
Cc1ccc(C(=O)N/C(=C/c2ccc(-c3cccc([N+](=O)[O-])c3)o2)C(=O)NCCCN(C)C)cc1,IC50,[3],> 20 µM (inactive)
Cc1c(C(=O)Nc2ccc3c(c2)OCO3)sc2nc(-c3ccccc3)cn12,EC50,[4],> 99 µM (inactive)
same,EC50,[5],> 99 µM (inactive)
COc1ccccc1NS(=O)(=O)c1cc(NC(=O)c2cccs2)ccc1N1CCCC1,IC50,[6],37.1 µM (active)
O=C(c1ccc2c(c1)ncn2C1CCCCC1)N1CCC2(CC1)OCCO2,EC50,[7],6.5 µM (active)
same,EC50,[8],> 120 µM (not active)
same,EC50,[9],> 120 µM (not active)
CN(C)C(CNC(=O)CCCN1C(=O)c2cccc3cccc(c23)C1=O)c1ccccc1 (centres undefined),AC50,[1],43.4 µM (active)
C=CCn1c(S)nnc1-c1ccc2ncccc2c1,IC50,[6],11.9 µM (active)
CCOc1ccc2nc(NC(=S)N(C)C)sc2c1,IC50,[6],62.4 µM (active)
Cc1cc2ccc3ccccc3c2cc1CN(C)C,EC50,[10],> 350 µM (not active)
same,AC50,[1],38.3 µM (active)
same,EC50,[11],> 350 µM (not active)
COc1ccc(-c2cc(=O)oc3c(C)c(O)c(CN(C)C)cc23)cc1,AC50,[12],17.4 µM (active)
same,AC50,[13],13 µM (active)
same,IC50,[14],> 79 µM (inactive)
same,AC50,[15],18.1 µM (active)
same,AC50,[16],7.97 µM (active)
N=C(Cc1cccs1)NOC(=O)COc1ccccc1Cl,EC50,[7],50.4 µM (active)
same,EC50,[8],46 µM (active)
same,EC50,[9],7.6 µM (active)
Nc1nc2ccccc2n1C(=O)c1ccc(F)cc1,CC50,[17],> 40 µM (active)
same,IC50,[18],9.58 µM (active)
Cc1ccccc1C(=O)NCC(=O)NNC(=S)NC(=O)c1ccccc1,IC50,[19],47.4 µM (active)
same,IC50,[3],> 20 µM (inactive)
CCOC(=O)c1ccc(N2C(=O)CC(N3CCC(C(=O)OCC)CC3)C2=O)cc1 (centres undefined),AC50,[20],7.24 µM (active)
Sc1nc2ccccc2c2nc(-c3cccnc3)nn12,IC50,[3],> 20 µM (inactive)
CCC(CC)COC(=O)C(C#N)c1nc2ccccc2nc1N1CCN(CC)CC1 (centres undefined),EC50,[21],4.05 µM (active)
same,CC50,[17],26.2 µM (active)
same,EC50,[22],> 60 µM (not active)
same,IC50,[18],17.9 µM (active)
COC(=O)C1=C(c2ccc(F)cc2OCc2ccccc2)C[C@@H]2CC[C@H]1N2C(=O)NC1CCN(Cc2ccccc2)CC1,IC50,[3],> 20 µM (inactive)
C[C@@H](CN1CCC[C@H]1CN1C(N)=NC[C@@H]1Cc1ccccc1)N1C[C@@H](Cc2ccccc2)N(CCCC2CCCC2)C1=N,IC50,[3],> 20 µM (inactive)
COC(=O)[C@@]1(C)[C@H]2C(=O)N(Cc3ccccc3)C(=O)[C@H]2[C@H]2CN=C(SCC3CC3)N21,AC50,[12],7.31 µM (active)
same,AC50,[13],2.13 µM (active)
same,AC50,[15],2.3 µM (active)
same,AC50,[16],2.95 µM (active)
CC(=O)Nc1cccc(NC(=N)Nc2nc(C)cc(C)n2)c1,AC50,[23],18.8 µM (active)
Cn1cc(Cl)c(C(=O)N/N=C/c2ccc3c4c(cccc24)CC3)n1,EC50,[4],> 99 µM (inactive)
same,EC50,[5],> 99 µM (inactive)
CC1(C(=O)N/N=C/c2ccc3c(c2)OCO3)CC1(Br)Br (centres undefined),AC50,[12],7.47 µM (active)
same,AC50,[13],5.4 µM (active)
same,AC50,[15],4.12 µM (active)
same,AC50,[16],7.57 µM (active)
C[C@]12CC[C@H](OC(=O)[C@@H](N)CCCCN)C[C@@H]1CC[C@@H]1[C@@H]2CC[C@@]2(C)[C@H]1CC[C@]2(C)O,AC50,[23],1.93 µM (active)
CN1CCc2c(sc(N)c2C(=O)O)C1,AC50,[23],11.7 µM (active)
CC(C)=CCc1c2c(c3occ(-c4ccc(O)c(O)c4)c(=O)c3c1O)C=CC(C)(C)O2 [POMIFERIN],AC50,[20],13.3 µM (active)

# Source: ChEMBL document CHEMBL1201862, “PubChem BioAssay data set” (2004)
